What all share (assay type): cell-based
In experiment [1] the target is T1, human TWIK-1 K+ channel, SEQ ID NO: 2 (Homo sapiens, UniProt O00180).
T1 construct: expressed in transfected cells; host or cells: Xenopus laevis oocytes injected with cRNA transcribed from pEXO-TWIK-1
T1 sequence (O00180 1-336): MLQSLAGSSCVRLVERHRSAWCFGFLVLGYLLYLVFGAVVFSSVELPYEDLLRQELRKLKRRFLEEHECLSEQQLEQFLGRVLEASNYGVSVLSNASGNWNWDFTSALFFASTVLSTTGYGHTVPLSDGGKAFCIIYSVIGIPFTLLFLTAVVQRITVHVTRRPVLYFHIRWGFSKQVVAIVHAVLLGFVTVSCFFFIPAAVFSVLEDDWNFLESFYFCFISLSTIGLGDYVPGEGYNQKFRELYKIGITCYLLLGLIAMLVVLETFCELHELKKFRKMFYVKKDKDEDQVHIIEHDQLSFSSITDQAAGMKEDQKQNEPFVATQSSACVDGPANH
The experiment in a line: TWIK-1 single channel activity, excised patch from Xenopus oocytes. To be noted: perfusion of the excised patch with 10 mM. On the procedure:
The pipettes were filled with a strong K+ solution (40 mM KCl, 100 mM of potassium methane sulfonate, 1.8 mM CaCl2, 2 m M MgCl2 and 5 mM HEPES adjusted to pH 7.4 with KOH). 100 µM of GdCl3 was added to the pipette solution to inhibit the action of the […]. The inside-out patches were perfused with a solution containing 140 mM KC1,10 mM CaCl2, 5 mM HEPES adjusted to pH 7.2 with KOH and 5 m M EGTA added daily. The single channel signals were filtered at 3.5 kHz and analyzed with the Biopatch program (Big-Logic, Grenoble, France).
With 3 mM of internal Mg^2+, the mean duration of opening at +80 mV is 1.9 ms and the unitary conductance is 19 +/- 1 pS (Figure 5c). At -80 mV, the channels are oscillating with a mean duration of opening of 0.3 ms, and a conductance value in creasing to 34 pS. […] In contrast to numerous channels which require the presence of ATP for their activity in the excised patch configuration, ATP is not required for the expression of TWIK-1.

In experiment [2] the target is T1, human TWIK-1 K+ channel, SEQ ID NO: 2. Nature of the experiment: TWIK-1 K+ currents, two-electrode voltage clamp in Xenopus oocytes injected with TWIK-1 cRNA. As to conditions: 30 nM, activation of protein kinase C. On the procedure:
For the functional study, the coding sequence of TWIK-1 was inserted between the noncoding sequences 5' and 3' of Xenopus globin in the vector pEXO (Lingueglia, E. et al., 1993, J. Biol. Chem., 269, 13736-13739). A complementary RNA (cRNA) was transcribed of this construction and injected in the oocytes of X laevis. In a 0.3ml perfusion chamber, a single oocyte was impaled on two standard glass microelectrodes (0.5 - 2.0 MW) charged with 3 M KCI and maintained under voltage-clamp with a Dagan TEV200 amplifier. The bath solution contained 98 mM KCl,1.8 raM CaCl2 […] and 5 mM HEPES at pH 7.4 with KOH. Stimulation of the preparation, data acquisition and analyses were carried out with the pClamp program (Axon Instruments) USA3.
Intracellular acidification of the oocytes was produced using two methods: • superfusion with a solution enriched in CO2 which produces acidification by a mechanism involving the bicarbonate transport system (Guillemare, E. et al., 1995, Mol. Pharmacol., 47, 588-594); • treatment with dinitrophenol (DNP), which is a metabolic inhibitor that decouples the H+ gradient in mitochondria and induces internal acidity (Pedersen, P. L. and Carafoli, E., 1997, Trends Biol. Sci., 12, 146-189).
(§1) Phosphorylation or dephosphorylation of specific amino acid residues is an important mechanism of regulation of the ionic channels (Levitan, I. B., 1994, Annul Rev. Physiol., 56, 193-212).

The subject of experiment [3] is human TWIK-1 K+ channel, mutation of the threonine 161 into alanine. Nature of the experiment: Currents of mutated TWIK-1 channel in Xenopus oocytes. To be noted: mutant Thr161 to Ala. The protocol:
The TWIK-1 coding sequence was amplified using a low-error rate DNA polymerase (Pwo DNA pal, Boehringer) and subcloned in the plasmid pEXO so as to yield pEXO-TWIK-1. Mutations were performed using the whole plasmid pEXO-TWIK-1 with a highly reliable PCR extension kit (Boehringer) and two adjacent primers. One of these introduced a punctiform mutation in the IINIK-1 coding sequence, changing the 161 Thr codon into a codon for alanine. The product of the PCR was linearized by the enzyme BamHI and the cRNA were synthesized using a T7 RNA polymerase (Stratagene). Preparation of the X. larvis oocytes and cRNA injection were carried out in accordance with the literature (Guillemare, E. et al., 1992, Biochemistry. 31, 1246312468,
as §1

The target of experiment [4] is human TASK1 K+ channel, SEQ ID NO: 4 (Homo sapiens, UniProt O14649). The experiment in a line: TASK1 currents elicited by voltage pulses to +50 mV, two-electrode voltage clamp in Xenopus oocytes. As to conditions: 40 nM, activation of protein kinase C. The protocol:
For functional studies, TASK1 cRNAs were injected into Xenopus oocytes. This was accomplished by subcloning a 2480 bp SmaI/XhoI fragment from pBS-hT ASK containing 14 bp of 5' UTR, the coding sequence and the entire 3' UTR into the pEXO vector (Lingueglia et al., 1993) to give pEXO-TASK1. Capped-cRNAs were synthesised in vitro from the linearized plasmid by using the T7 RNA polymerase (Stratagene). Xenopus laevis were purchased from CRBM (Montpellier, France). Preparation and cRNA injection of oocytes has been described elsewhere (Guillemare et al., 1992). Oocytes were used for electrophysiological studies 2 to 4 days following injection (20 ng/oocyte). In a 0.3 ml perfusion chamber, a single oocyte was impaled with two standard microelectrodes (1-2.5 Mn resistance) filled with 3 M KCI and maintained under voltage clamp by using a Dagan TEV 200 amplifier, in standard ND96 solution (96 mM NaC1. 2 mM KCI, 1.8 mM CaCI2, 2 mM MgCl2, 5 mM HEPES, pH 7.4 with NaOH). In some experiments, NaCl was substituted with TMA Cl (Tetra Methyl Ammonium Chloride). Stimulation of the preparation, data acquisition, and analysis were performed using pClamp software (Axon instruments, USA). Drugs were applied externally by addition to the superfusate (flow rate: 3 ml/min) or intracellularly injected by using a pressure microinjector (Inject+Matic, Switzedand). All experiments were performed at room temperature (21-22 °C).
Figure 12A presents the I-V relationships of the current in K^+-rich solutions ranging from 2 mM to 98 mM. […] The theoretical I-V relationships in various [K^+]out calculated according to the Goldman-Hodgkin-Katz current equation are shown in Figure 12D. […] The effect of various pharmacological agents on currents elicited by voltage pulses to +50 mV has been studied in TASK1-expressing oocytes.

Experiment [5] concerns the target T2, human TASK-2 K+ channel, SEQ ID NO: 28 (Homo sapiens, UniProt O95279).
T2 construct: expressed in transfected cells; host or cells: COS cells transiently transfected with pIREScd8-TASK-2 (DEAE-dextran)
T2 sequence (O95279 1-499): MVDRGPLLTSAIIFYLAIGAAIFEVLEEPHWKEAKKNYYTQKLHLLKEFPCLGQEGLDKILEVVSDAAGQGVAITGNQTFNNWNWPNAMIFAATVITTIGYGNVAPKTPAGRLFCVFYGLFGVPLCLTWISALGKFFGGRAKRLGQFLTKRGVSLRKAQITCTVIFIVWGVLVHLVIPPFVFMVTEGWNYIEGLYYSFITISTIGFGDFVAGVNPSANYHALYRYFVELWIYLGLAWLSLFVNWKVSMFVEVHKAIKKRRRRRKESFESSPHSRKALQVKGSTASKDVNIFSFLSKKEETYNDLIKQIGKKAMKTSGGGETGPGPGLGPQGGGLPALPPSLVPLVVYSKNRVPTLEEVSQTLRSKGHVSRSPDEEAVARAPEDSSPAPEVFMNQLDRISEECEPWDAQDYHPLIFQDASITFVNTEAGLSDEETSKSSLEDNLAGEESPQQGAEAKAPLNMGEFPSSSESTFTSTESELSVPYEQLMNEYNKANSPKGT
The experiment in a line: TASK-2 currents elicited by voltage pulses to +50 mV, whole cell recording in transfected COS cells. As to conditions: 70 nM, activation of PKC. The protocol:
For patch clamp analyses, a NotI/EcoRI fragment of 3.2 kb was excised from pBS-TASK 2 and subcloned into the pIRES-CD8 vectorto givepIREScdB-TASK-2. ThepIRES-CD8 vector was obtained by replacing the neo^R gene in the original vector pIRESneo (Clontech) by the coding sequence of the T type lymphocyte's surface marker CD8. COS cells were seeded at a density of 20,000 cells per 35 mm dishes 24 h prior to transfection. Cells were then transiently transfected by the classical DEAE-dextian method with 1 µg of prREScdB-TASK-2 plasmid per 35 mm dish. Transiently-transfected cells were visualized 48 h after transfection using the anti-CD8 antibody coated beads method (24). For whole cell recordings, the internal solution contained 150 mM KCI, 3 mM MgCl2, 5 mM EGTA, and 10 mM HEPES at pH 7.2 with KOH, and he external solution 150 mM NaCl, 5 mM KCI, 3 mM MgCl2 1 mM CaCl2, 10 mM HEPES at pH 7.4 with NaOH.
The effects of various pharmacological agents on currents elicited by voltage pulses to +50 mV have been studied in TASK-2-exprcssing. COS cells.

Sequence of human TASK1 K+ channel, SEQ ID NO: 4 (O14649 whole entry, the tested form may be a part): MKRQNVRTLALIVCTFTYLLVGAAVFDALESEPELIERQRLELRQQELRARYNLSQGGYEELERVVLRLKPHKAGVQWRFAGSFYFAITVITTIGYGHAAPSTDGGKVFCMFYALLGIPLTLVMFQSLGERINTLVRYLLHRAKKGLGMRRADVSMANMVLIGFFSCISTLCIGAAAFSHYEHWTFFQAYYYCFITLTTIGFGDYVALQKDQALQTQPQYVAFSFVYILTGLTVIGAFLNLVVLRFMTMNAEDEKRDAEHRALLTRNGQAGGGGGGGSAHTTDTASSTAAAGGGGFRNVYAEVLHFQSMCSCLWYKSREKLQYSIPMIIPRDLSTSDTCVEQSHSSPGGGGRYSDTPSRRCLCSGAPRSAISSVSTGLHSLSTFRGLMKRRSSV

For the compound `Nc1ncnc2c1ncn2[C@@H]1O[C@H](COP(=O)(O)OP(=O)(O)OP(=O)(O)O)[C@@H](O)[C@H]1O` [ATP], in experiment [1], the “effect on the activity of the TWIK-1 channel” value is given as “does not induce any effect”.
Take `CCCCCCCCCCCCCC(=O)O[C@@H]1[C@@H](C)[C@@]2(O)[C@@H](C=C(CO)C[C@]3(O)C(=O)C(C)=C[C@@H]23)[C@@H]2C(C)(C)[C@]12OC(C)=O` [PMA, phorbol-12 myristate acetate]: the “effect on TWIK-1 currents” value in experiment [2] is reported as “increases”. Moreover, the “activation by PMA” value in experiment [3] is reported as “conserves the capacity to be activated”. Also, the “sensitivity of TASK1 currents” value in experiment [4] is “insensitive”. Besides, the “sensitivity of TASK-2 currents” value in experiment [5] was “insensitive”.

Source of the values: patent EP1129187B1, “NEW FAMILY OF MAMMALIAN POTASSIUM CHANNELS, THEIR CLONING AND THEIR USE, ESPECIALLY FOR THE SCREENING OF DRUGS” (CENTRE NATIONAL DE LA RECHERCHE SCIENTIFIQUE (CNRS), priority 1998, dated 2000).
